Values quoted from earlier work, collected in patent US6717012B2, “Antioxidant nitroxides and nitrones as therapeutic agents” (priority 2001, dated 2004).

Experiments:
[1] = test system: rats with an experimental painful peripheral neuropathy
[2] = test system: quinolic acid-induced hippocampal damage; conditions: rats
[3] = target: NMDA channel ([3H]dizocilpine binding to brain membranes) (Homo sapiens, UniProt Q05586)
[4] = target: PCP and MK-801 binding sites of the NMDA receptor (Homo sapiens, UniProt Q05586); conditions: postmortem human frontal cortex, at therapeutic concentrations
[5] = test system: nicotinic acetylcholine receptors
[6] = target: T1, 5-hydroxytryptamine 5-HT3 receptors (Homo sapiens, UniProt P46098)
T1 sequence (P46098 24-478): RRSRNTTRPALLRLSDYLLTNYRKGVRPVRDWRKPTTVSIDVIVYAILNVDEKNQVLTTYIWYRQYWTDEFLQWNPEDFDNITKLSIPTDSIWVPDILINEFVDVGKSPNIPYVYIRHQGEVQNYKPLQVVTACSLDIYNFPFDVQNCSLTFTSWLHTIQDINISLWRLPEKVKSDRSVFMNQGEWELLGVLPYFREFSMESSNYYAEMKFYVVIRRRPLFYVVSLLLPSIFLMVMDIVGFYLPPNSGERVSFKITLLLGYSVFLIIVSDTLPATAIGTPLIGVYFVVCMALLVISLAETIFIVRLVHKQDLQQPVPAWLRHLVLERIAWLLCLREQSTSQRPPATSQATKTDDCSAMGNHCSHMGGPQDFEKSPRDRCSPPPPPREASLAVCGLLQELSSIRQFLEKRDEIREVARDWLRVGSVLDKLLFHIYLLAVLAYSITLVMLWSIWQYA

[7] = test system: cortical and retinal neuron cultures
NMDA receptor = NMDA receptor (Homo sapiens, UniProt Q05586)

SMILES	effect on heat hyperalgesia [1]	prevention of quinolic acid-induced hippocampal damage [2]	inhibition of [3H]dizocilpine binding [3]	binding to PCP and MK-801 binding sites [4]	block of nicotinic acetylcholine receptors [5]	block of 5-HT3 receptors [6]	protection from toxicity of glutamate, NMDA and HIV-1 coat protein gp120 [7]	antagonist potency at the NMDA receptor (NMDA receptor)
CC1(C)CC(O)CC(C)(C)N1[O] [4-hydroxy-2,2,6,6-tetramethylpiperidine-1-oxyl]	alleviated heat hyperalgesia							
CC12CC3CC(C)(C1)CC(N)(C3)C2 [Memantine, 1-amino-3,5-dimethyladamantane]		prevents	inhibits	binds	blocks	blocks	protects	micromolar antagonist
